Measured values from BindingDB's records for doi:10.1016/j.bmcl.2011.06.070 (Novartis Institutes For Biomedical Research, 2011).

Test: Antagonist activity at CXCR3 in rat leukocytes assessed as inhibition of ITAC-induced cell migration by flow cytometry

Point of comparison: O=C([C@@H]1C=C2c3cccc4[nH]cc(c34)C[C@H]2N(C(=O)Nc2ccccc2)C1)N1CCCCC1, IC50 13 nM. Against it:
- CCN(CC)C(=O)[C@@H]1C=C2c3cccc4[nH]cc(c34)C[C@H]2N(C(=O)Nc2ccccc2)C1 [(6aR,9R)-N9,N9-diethyl-N7-phenyl-6,6a,8,9-tetrahydroindolo[4,3-fg]quinoline-7,9(4H)-dicarboxamide] — 5.7-fold higher, 74 nM
- O=C([C@@H]1C=C2c3cccc4[nH]cc(c34)C[C@H]2N(C(=O)Nc2ccccc2)C1)N1CCCC1 — within 1.5-fold, 19 nM
- O=C([C@@H]1C=C2c3cccc4[nH]cc(c34)C[C@H]2N(C(=O)Nc2ccccc2)C1)N1CCOCC1 — 6-fold higher, 78 nM
